Measurements as given in patent US9603888B2, “Pea protein peptides with anti Helicobacter pylori activity” (priority 2010, dated 2017).
Several values for one entry are separate records, joined by “and”; a condition that tells them apart may be missing. Equal values may be shown once. Where no end group is shown, it is not given here.

Assays:
[1] = tested on: FITC-labelled H. pylori on AGS cells; assay: Flow cytometric anti-adhesion assay of FITC-labelled H. pylori on AGS cells; conditions: for reduction of adhesion: fragments of S3
Protocol: H. pylori was incubated for 48 h under microaerophilic conditions at 37° C. on Tryptic Soy Agar (Becton Dickinson, Germany), supplemented with 5% defibrinated sheep blood (Oxoid, UK).
Human gastric epithelial cells (AGS cells) were grown in RPMI 1640 with L-glutamine (PAA, Germany), supplemented with 10% FCS, on tissue culture flasks (75 cm^2, Sarstedt, USA) and 6-well-plates (Sarstedt, USA) in 5% CO2.
Agar grown H. pylori were harvested and resuspended in sterile carbonate buffer (pH 9.0) to a density of about 1.0×10^8 bacteria per ml. 10 μl of a FITC solution (1% in DMSO) were added and incubated with the bacteria for 45 min. Fluorescent labelling was terminated by pelleting the bacteria (3.150×g, 5 min). Bacteria were washed twice in PBS to remove excess FITC and were gently resuspended for further use.

OMP BabA = assay: Dot blot glycoconjugate assay, BabA ligands (Lewis b, H type I); type: binding; conditions: pre-treatment of H. pylori
[2] = tested on: FITC-labelled H. pylori on human gastric mucosa; assay: In situ adhesion assay on histological sections of human gastric mucosa; type: cell-based; conditions: 300 μM
Protocol: In situ experiments with histological sections of human gastric mucosa and FITC-labelled H. pylori were performed according to Lengsfeld et al, 2004, J. Agricul. Food Chem: 52, 1495-1503, and evaluated by fluorescent microscopy. The adhesion of FITC-labelled H. pylori to the epithelium was assessed by fluorescent microscopy and imaging. The quantity of adhering bacteria to the epithelial surface was evaluated under double blinded conditions. Maximal adhesion was expressed as total 100% adhesion. The fluorescence area intensity was calculated by ImageJ® software (Olympus, Germany), standardizing the fluorescent area of the negative control as 100%.

[3] = tested on: H. pylori outer membrane proteins (OMP); assay: Dot blot glycoconjugate assay, adhesins in general; type: binding; conditions: pre-treatment of H. pylori
[4] = 75 μM, untreated control = 100%
[5] = 150 μM, untreated control = 100%

Compound	rel. adhesion in [%] (±SEM; n = 3) [1, 4]	rel. adhesion in [%] (±SEM; n = 3) [1, 5]	further results
CC(=O)N[C@H]1[C@H]([C@H](O)[C@H](O)CO)O[C@@](O[C@H]2[C@@H](O)[C@@H](CO)O[C@@H](O[C@H]3[C@H](O)[C@@H](O)C(O)O[C@@H]3CO)[C@@H]2O)(C(=O)O)C[C@@H]1O (stereo partly shown) [positive control, 3′sialyllactose, reference compound]	–	–	rel. adhesion in [%] (±SEM; n = 3) ([1]; positive control 3′sialyllactose 15 mM): 70 ± 5%
AFNVNR [S3B]	97 ± 4%	104 ± 1%	–
Asp-Ala-Phe [S3H]	104 ± 6%	105 ± 1%	antiadhesive activity against H. pylori (in words) [1]: inactive
Asp-Phe-Leu-Glu-Asp (DFLED) [S3A]	102 ± 3%	108 ± 6%	–
DAFNVNR [S3D]	89 ± 4%	89 ± 3%	reduction of adhesion [1]: about 10%
DFLEDAF [S3F]	85 ± 3%	90 ± 5%	reduction of adhesion [1]: about 10%
DFLEDAFNV [S3E]	91 ± 4%	91 ± 4%	reduction of adhesion [1]: about 10%
DFLEDAFNVNR [S3]	81% and 81 ± 3%	83% and 83 ± 6%	bacterial interaction with Lewis b-HSA conjugate (OMP BabA): inhibition; inhibition of adhesion in situ [2]: about 40%; antiadhesive activity against H. pylori (in words) [1]: inhibit adhesion; influence on other adhesins (other than BabA / Lewis b-HSA) [3]: not significantly influenced
ELAFPGSAQEVDR [S5]	94 ± 2%	85 ± 2%	bacterial interaction with Lewis b-HSA conjugate (OMP BabA): inhibition; antiadhesive activity against H. pylori (in words) [1]: inhibit adhesion; inhibition of adhesion ([1]; 75 μmol): 6%; inhibition of adhesion ([1]; 150 μmol): 17%; influence on other adhesins (other than BabA / Lewis b-HSA) [3]: not significantly influenced
GDFELVGQR [S6]	94 ± 3%	97 ± 2%	–
LDALEPDNRIESEGGLIETWNPNNK [S1]	95 ± 10%	104 ± 7%	–
LEDAFNV [S3G]	93 ± 2%	94 ± 3%	reduction of adhesion [1]: about 10%
LEDAFNVNR [S3C]	95 ± 5%	100 ± 4%	–
LNIGPSSSPDIYNPEAGR [S2]	93 ± 8%	94 ± 6%	–
WEREEDEEQVDEEWR [S4]	98 ± 2%	107 ± 2%	–
